Measured values: patent US20220372040A1, “METTL3 MODULATORS” (Accent Therapeutics, Inc., priority 2020, published 2022)
Like-named read-outs stand apart in the source and are kept apart here.

Tests used:
[1] = target: T1, METTL16 (Homo sapiens, UniProt Q86W50); experiment: METTL16 assay (3H-SAM flashplate scintillation); format: biochemical; conditions: METTL16 100 nM, RNA 50 nM, 3H-SAM 200 nM, SAM 800 nM, 20 min
T1 sequence (Q86W50 1-562): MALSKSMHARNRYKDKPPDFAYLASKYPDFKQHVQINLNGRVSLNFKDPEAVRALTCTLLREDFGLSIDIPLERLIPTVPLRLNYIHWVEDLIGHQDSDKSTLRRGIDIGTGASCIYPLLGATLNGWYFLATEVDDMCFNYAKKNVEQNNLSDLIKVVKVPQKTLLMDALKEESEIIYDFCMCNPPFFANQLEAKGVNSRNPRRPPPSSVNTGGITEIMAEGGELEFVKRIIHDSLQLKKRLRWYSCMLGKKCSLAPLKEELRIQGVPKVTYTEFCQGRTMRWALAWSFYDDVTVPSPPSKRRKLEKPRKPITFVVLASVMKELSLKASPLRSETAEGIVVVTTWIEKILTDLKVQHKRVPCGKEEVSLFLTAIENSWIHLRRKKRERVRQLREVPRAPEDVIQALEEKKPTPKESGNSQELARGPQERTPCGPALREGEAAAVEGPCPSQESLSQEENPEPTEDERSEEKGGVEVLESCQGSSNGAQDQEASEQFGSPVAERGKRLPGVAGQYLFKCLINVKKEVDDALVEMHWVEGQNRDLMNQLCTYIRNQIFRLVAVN
Procedure, shortened: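 Radiometric methyltransferase reaction at ambient temperature in 20 mM HEPES pH 7.5, 50 mM KCl, 1 mM DTT, with 100 nM enzyme preincubated 5 min with compound. It was started with 50 nM 3′-biotinylated RNA, 200 nM 3H-SAM plus 800 nM cold SAM, run 20 min, then quenched with excess cold SAM. Product was captured on streptavidin flashplates and scintillation-counted.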

[2] = system: m^6 A in cellular mRNA of MOLM-13 cells; experiment: m^6 A-mRNA LC-MS/MS assay (m^6 A cellular assay); format: cell-based; conditions: Homo sapiens, 24 hours incubation, LC-MS/MS of m^6 A/A in mRNA
Procedure, shortened: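 MOLM-13 cells in RPMI 1640 with 10% FBS dosed 24 h at 37° C. with 8-point, 4-fold series from 25 μM to 1.5 nM, 0.25% DMSO. Extracted mRNA digested to nucleosides and quantified by LC-MS/MS against standards; result expressed as 100*(m^6 A/A).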

[3] = target: METTL1/WDR4 (Homo sapiens, UniProt Q9UBP6); experiment: METTL1 assay (3H-SAM flashplate scintillation); format: biochemical
METTL1/WDR4, sequence (Q9UBP6 whole entry, species assumed): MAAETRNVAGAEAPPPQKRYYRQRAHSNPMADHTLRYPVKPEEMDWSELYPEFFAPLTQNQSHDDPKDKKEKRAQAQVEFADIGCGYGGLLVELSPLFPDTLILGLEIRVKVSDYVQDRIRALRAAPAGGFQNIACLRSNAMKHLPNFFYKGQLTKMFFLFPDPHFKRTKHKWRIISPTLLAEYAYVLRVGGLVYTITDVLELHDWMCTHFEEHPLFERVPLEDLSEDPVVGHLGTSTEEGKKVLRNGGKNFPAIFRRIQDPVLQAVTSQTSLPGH
METTL1/WDR4, sequence (P57081 whole entry partner, species assumed): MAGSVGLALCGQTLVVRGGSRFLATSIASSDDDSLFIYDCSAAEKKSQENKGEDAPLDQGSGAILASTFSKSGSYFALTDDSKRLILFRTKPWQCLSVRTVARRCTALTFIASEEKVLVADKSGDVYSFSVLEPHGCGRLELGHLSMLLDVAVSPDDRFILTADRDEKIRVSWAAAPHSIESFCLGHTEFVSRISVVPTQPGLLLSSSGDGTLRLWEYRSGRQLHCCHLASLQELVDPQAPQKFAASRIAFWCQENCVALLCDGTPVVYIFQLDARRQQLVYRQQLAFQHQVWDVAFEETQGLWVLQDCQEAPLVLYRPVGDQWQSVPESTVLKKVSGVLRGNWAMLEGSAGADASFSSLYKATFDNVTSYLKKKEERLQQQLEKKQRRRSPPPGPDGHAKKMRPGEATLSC
Procedure, shortened: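 Radiometric methyltransfer by METTL1/WDR4 (6.25 nM f.c., 5 min preincubation) at ambient temperature in HEPES pH 7.5, KCl, MgCl2, DTT; started with 25 nM 3′-biotinylated RNA and 60 nM 3H-SAM, run 20 min, quenched with 15 μM cold SAM. Product captured on streptavidin flashplates (2 h, 25° C), counted by scintillation.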

[4] = METTL1/WDR4 6.25 nM, RNA 25 nM, 3H-SAM 60 nM, 20 min, read-out: METTL1 IC50

Row | SMILES | IC50 [1] [nM] | IC50 [2] [nM] | IC50 [3, 4] [nM] | IC50 [3] [nM]
1 | CNc1ccc2ccc(OCc3cncc(-n4cc(Cl)c5c(N)ncnc54)c3)cc2n1 [Compound I-74, 7-((5-(4-amino-5-chloro-7H-pyrrolo[2,3-d]pyrimidin-7-yl)pyridin-3-yl)methoxy)-N-methylquinolin-2-amine] | > 1000 | 1000 to 10000 | > 1000 | –
2 | Nc1ncnc2c1c(C1CCCO1)cn2-c1cncc(CCc2ccc3ccc(N4CCC4)nc3c2)c1 (stereo not shown) [Compound I-126] | > 1000 | 1000 to 10000 | > 1000 | –
3 | C[C@@H]1CCN1c1ccc2ccc(OCc3cncc(-n4cc(C5CCCC5)c5c(N)ncnc54)c3)cc2n1 [Compound I-124] | > 1000 | – | > 1000 | –
4 | CNc1ccc2ccc(OCc3cncc(-n4cc(-c5ncco5)c5c(N)ncnc54)c3)cc2n1 [Compound I-235] | > 1000 | – | > 1000 | –
5 | CNc1ccc2ccc(OCc3cncc(-n4cc(C(C)C5CC5)c5c(N)ncnc54)c3)cc2n1 (stereo not shown) [Compound I-120] | > 1000 | – | > 1000 | –
6 | CNc1ccc2ccc(OCc3cncc(-n4cc(-c5ccc(C)o5)c5c(N)ncnc54)c3)cc2n1 [Compound I-234] | > 1000 | 1000 to 10000 | > 1000 | –
7 | CNc1ccc2ccc(OCc3cc(Br)cc(-n4cc(Cl)c5c(N)ncnc54)c3)cc2n1 [Compound I-75] | > 1000 | – | > 1000 | –
8 | CNc1ccc2cc(CCc3cccc(-n4cc(Cl)c5c(N)ncnc54)c3)ccc2n1 [Compound I-70] | > 1000 | ≥ 10000 | > 1000 | –
9 | CCc1cc(NCCCN(C)C)c2ccc(CCc3cncc(-n4ccc5c(N)ncnc54)c3)cc2n1 [Compound I-127] | > 1000 | – | > 1000 | –
10 | Cn1ccc(-c2cn(-c3cncc(CCc4ccc5cc(Br)c(N)nc5c4)c3)c3ncnc(N)c23)n1 [Compound I-123] | > 1000 | – | > 1000 | –
11 | CCc1cc(N2CCC(F)(F)CC2)c2ccc(OCc3cncc(-n4ccc5c(N)ncnc54)c3)cc2n1 [Compound I-118] | > 1000 | – | > 1000 | –
12 | CCc1cc(NCCOC)c2ccc(CCc3cncc(-n4cc(-c5ccn(C)n5)c5c(N)ncnc54)c3)cc2n1 [Compound I-115] | > 1000 | < 1000 | – | > 1000
13 | CNc1ccc2ccc(OCc3cccc(-n4cc(Cl)c5c(N)ncnc54)c3)cc2n1 [Compound I-87] | > 1000 | – | > 1000 | –
14 | CNc1ccc2ccc(OCc3cncc(-n4cc([C@@H]5CCCO5)c5c(N)ncnc54)c3)cc2n1 [Compound I-113] | > 1000 | < 1000 | – | > 1000
15 | CNc1ccc2ccc(OCc3cc(CO)cc(-n4cc(Cl)c5c(N)ncnc54)c3)cc2n1 [Compound I-34] | > 1000 | ≥ 10000 | > 1000 | –
16 | CNc1ccc2ccc(OCc3cncc(-n4c(C)cc5c(N)ncnc54)c3)cc2n1 [Compound I-36] | > 1000 | 1000 to 10000 | > 1000 | –
17 | CNc1ccc2ccc(OCc3cncc(-n4cc(CC5CC5)c5c(N)ncnc54)c3)cc2n1 [Compound I-29] | > 1000 | 1000 to 10000 | > 1000 | –
18 | CNc1ccc2ccc(OCc3cncc(-n4cc([C@H]5CCCO5)c5c(N)ncnc54)c3)cc2n1 [Compound I-112] | > 1000 | 1000 to 10000 | – | > 1000
19 | Nc1nc2cc(OCc3cncc(-n4ccc5c(N)ncnc54)c3)ccc2cc1Br [Compound I-111] | > 1000 | – | > 1000 | –
20 | CCNc1ccc2ccc(OCc3cncc(-n4cc(-c5ccn(C)n5)c5c(N)ncnc54)c3)cc2n1 [Compound I-128] | > 1000 | 1000 to 10000 | > 1000 | –
21 | Cn1ccc(-c2cn(-c3cncc(CCc4ccc5ccc(N)nc5c4)c3)c3ncnc(N)c23)n1 [Compound I-114] | > 1000 | – | > 1000 | –
22 | CNc1ccc2ccc(CCc3cncc(-n4cc(F)c5c(N)ncnc54)c3)cc2n1 [Compound I-116] | > 1000 | – | > 1000 | –
23 | CNc1ccc2ccc(OCc3cncc(-n4cc(-c5ccnn5C)c5c(N)ncnc54)c3)cc2n1 [Compound I-35] | > 1000 | ≥ 10000 | > 1000 | –
24 | CNc1ccc2ccc(CCc3cncc(-n4ccc5c(N)ncnc54)c3)cc2n1 [Compound I-30] | > 1000 | 1000 to 10000 | > 1000 | –
25 | CCc1cc(NC)c2ccc(CCc3cncc(-n4cc(-c5ccn(C)n5)c5c(N)ncnc54)c3)cc2n1 [Compound I-122] | > 1000 | – | > 1000 | –
26 | CCc1cc(N2CCNCC2)c2ccc(OCc3cncc(-n4cc(-c5ccn(C)n5)c5c(N)ncnc54)c3)cc2n1 [Compound I-121] | > 1000 | 1000 to 10000 | > 1000 | –
27 | CCc1cc(N(C)CCOC)c2ccc(CCc3cncc(-n4cc(-c5ccn(C)n5)c5c(N)ncnc54)c3)cc2n1 [Compound I-117] | > 1000 | < 1000 | – | > 1000
28 | CNc1ccc2ccc(OCc3cncc(-n4cc(C5CCCC5)c5c(N)ncnc54)c3)cc2n1 [Compound I-58] | > 1000 | 1000 to 10000 | – | –
29 | CCNc1ccc2ccc(OCc3cccc(-n4cc(Cl)c5c(N)ncnc54)c3)cc2n1 [Compound I-61] | > 1000 | – | > 1000 | –
